From patent US20120196918A1, “PREVENTING ISLET INFLAMMATION AND DYSFUNCTION AND MAINTAINING PROPER GLUCOSE LEVELS BY CONTROLLING eIF5A AND ITS HYPUSINATION” (priority 2009, published 2012)

Key:
[1] = system: iNOS; assay: Cytokine-induced iNOS protein in INS-1 cells (immunoblot); format: cell-based, rat; details: increasing inhibitor concentrations overnight, cytokines 4 h
Source text: eIF5A1 and eIF5A2 are the only proteins known to contain the unique amino acid hypusine at position 50. Hypusine is formed as a posttranslational modification of residue Lys50 in a reaction requiring spermidine and catalyzed by the sequential actions of the enzymes deoxyhypusine synthase (DHS) and deoxyhypusine hydroxylase (DOHH) (Chen, K Y, and Liu, A Y. Biochemistry and function of hypusine formation on eukaryotic initiation factor 5A. Biol Signals. 1997; 6(3):105-109). […] To further investigate the mechanism of eIF5A-regulated translation of Nos2, studies were performed following overnight incubation of cells with mimosine (an inhibitor of DOHH) and GC7 (an inhibitor of DHS). […] Similar data using GC7 were obtained in primary mouse islets (data not shown) and in human islets (FIGS. 5F and 5G).
Because GC7 is known to be inactivated by the action amine oxidases, which are abundant in serum, typical studies with GC7 in the literature have used aminoguanidine to inhibit amine oxidases (16). […] To rule out possible adverse effects of GC7 on cell viability, quantitative 2 color fluorescence analysis of live (calcein-AM-positive) and dead (ethidium homodimer-1-positive) cells were performed using fluorescence cytometry.
Cytokine and inhibitor incubation studies: For cytokine incubation assays, a 1000× cocktail of cytokines containing 5 μg/ml IL1β, 10 μg/ml TNFα, and 100 μg/ml IFNγ (all prepared in 0.1% BSA in Tris-buffered saline) was applied at 1× final concentration to groups of 50 islets or 1×10^6 INS-1 (832/13) cells for a total of 4 h at 37° C. For GC7 incubation studies, GC7 was prepared at a stock concentration of 125 mM in 10 mM acetic acid and applied to cultures of 50 islets or 1×10^6 INS-1 cells to obtain the final concentrations indicted in the figures. Where needed, GC7 was protected from amine oxidases in serum by addition of 1 mM aminoguanidine (Sigma). Cells were incubated with GC7 overnight (˜16 h) at 37° C. prior to analysis. Cells were exposed to Leptomycin B (Cayman Chemicals) for 3 hours; leptomycin B was prepared at a 1000× stock concentration of 20 μg/ml in ethanol.
Immunoblot and nitrite and iNOS assays: Whole cell extracts were resolved by electrophoresis on a 4-20% SDS-polyacrylamide gel, followed by immunoblot using anti-eIF5A1, anti-eIF5A2, anti-iNOS, anti-GFP, or anti-actin primary antibodies and fluorophore-labeled secondary antibodies. Immunoblots were visualized using the Li-Cor® Odyssey® system (Li-Cor Biosciences) and quantitated by scanning fluorometry using Odyssey Imaging v. […] Nitrite was quantitated by measuring nitric oxide-derived nitrite from INS-1 cell culture medium using the Griess reagent (Promega) according to the manufacturer's recommendations. iNOS activity was measured using a commercially available kit (Cayman).

[2] = system: iNOS; details: cited from earlier work
[3] = system: Nos2 mRNA; assay: Nuclear export of Nos2 mRNA, subcellular fractionation of cytokine-treated INS-1 cells; format: cell-based, rat
Method: Subcellular fractionation studies: Nuclear and cytoplasmic fractions of 1×10^6 cytokine-treated INS-1 cells exposed to vehicle, leptomycin B (20 ng/ml), or GC7 (100 μM) were prepared using the method of Dignam, et al. (76). Total RNA was isolated from nuclear and cytoplasmic fractions using the RNeasy® RNA isolation kit (Qiagen).
Quantitative RT-PCR: Five micrograms of total RNA from islets or INS-1 cells were reverse-transcribed as detailed previously (77). cDNA was subjected to quantitative PCR using SYBR Green-based technology and published primers for mouse Ins1/2 pre-mRNA (78) and QuantiTech® primers (Qiagen) for all other mouse genes. The Assay on Demand® kit (Applied Biosystems) was used to amplify rat genes in INS-1 cells and human genes in human islets. Thermal cycling was performed according to manufacturer's instructions, and the identity of each PCR product was verified by automated sequencing. All samples were corrected for total input RNA as quantitated by an Experion® (Bio-Rad) bioanalyzer. All data represent the average of triplicate determinations from at least 3 independent experiments.

[4] = system: eIF5A; assay: eIF5A nuclear-to-cytoplasmic translocation in INS-1 cells (immunofluorescence); format: cell-based, rat; details: pretreatment, then cytokines 4 h
Method: Given the striking retention of Nos2 transcripts in the absence of eIF5A-Hyp, it was of interest to determine whether the intracellular distribution of eIF5A accounts for its effect on Nos2 nucleo-cytoplasmic shuttling. Immunofluorescence of eIF5A in fixed INS-1 cells, were thus performed. […] Upon treatment of cells with cytokines, there was a shift in the eIF5A distribution pattern from the nucleus to the cytoplasm.
Cytokine and inhibitor incubation studies: For cytokine incubation assays, a 1000× cocktail of cytokines containing 5 μg/ml IL1β, 10 μg/ml TNFα, and 100 μg/ml IFNγ (all prepared in 0.1% BSA in Tris-buffered saline) was applied at 1× final concentration to groups of 50 islets or 1×10^6 INS-1 (832/13) cells for a total of 4 h at 37° C. For GC7 incubation studies, GC7 was prepared at a stock concentration of 125 mM in 10 mM acetic acid and applied to cultures of 50 islets or 1×10^6 INS-1 cells to obtain the final concentrations indicted in the figures. […]
Immunofluorescence: Immunofluorescence of INS-1 cells proceeded essentially as described previously (71), using primary antibodies to eIF5A1 and secondary anti-mouse Alexa-488-conjugated antibody (Invitrogen), or by direct visualization of GFP fusion proteins at 488 nm. […] Quantitation of cytoplasic-to-nuclear ratios of eIF5A staining was performed using Axio-Vision Software, v. […]

[5] = system: STZ-treated C57BL/6J mice; assay: Multiple low-dose streptozotocin (STZ) diabetes model in C57BL/6J mice; format: in vivo, mouse
Method: (§1) To test the role of eIF5A in cytokine-mediated islet dysfunction, efforts were made to identify a mouse model of islet inflammation. The multiple low dose streptozotocin (STZ) model, in which mice are subjected to five daily intraperitoneal doses (at 55 mg/kg body weight) of STZ, is considered to provoke local islet inflammation and cytokine release, in part through the recruitment of CD11c+ dendritic cells that release pro-inflammatory cytokines in the area of STZ-induced cellular destruction (27 and 28).
C57BL/6J mice were injected intraperitoneally with either stabilized siRNA against eIF5A (si-eIF5A) or control siRNA (si-Control) daily for three days, then subjected to the multiple low-dose STZ protocol (see schematic in FIG. 1a). […] The effect of administering si-eIF5A on islet viability following STZ treatment was determined by performing immunohistochemical analysis of the pancreata of mice. […] To quantify the differences in islet mass between STZ-treated and untreated animals, morphometry of insulin-stained pancreatic sections was performed.
Based on the observed data, if hypusination of eIF5A by DHS is required for cytokine responsiveness in islets, then inhibition of DHS in vivo should protect against low dose STZ diabetes. To test this, C57BL/6J mice were treated with GC7 or vehicle and then subjected to low dose STZ injections. GC7 was delivered in one of two different ways: either by daily bolus intraperitoneal injections (4 mg/kg/day) or by continuous subcutaneous delivery (40 μg/kg/h) using implanted osmotic pumps. A protocol similar to that shown in FIG. 1A was employed in these studies, with GC7 injections or pump implants starting 3 days prior to STZ injections.
Small interfering RNA (siRNA) studies: Stabilized siRNAs for intraperitoneal injections were custom synthesized by Dharmacon using the siSTABLE® modification. Groups of 10 week-old C57BL/6J male mice (from Jackson Labs) received daily intraperitoneal injections of 1.6 mg/kg siRNA prepared in 0.9% saline or vehicle alone (0.9% saline) for 3 days. For in vitro studies, islets from each group of injected mice were harvested on the fourth day and pooled prior to analysis. Injections with each siRNA were performed on at least 3 different occasions. siRNA sequences were as follows: siControl, 5′-[…]-3′; si-eIF5A, 5′-[…]-3′. For siRNA studies in the rat β cell-derived line INS-1 (832/13), cells were transfected with a SMART Pool® siRNA against rat eIF5A1 (Dharmacon, #L-083855-01) or non-targeting control siRNA #1 (Dharmacon) using DharmaFECT® transfection reagent (Dharmacon).
Immunostaining and morphometric assessment of β cell mass: Immunostaining of pancreatic sections proceeded as described previously (72). For assessment of islet cell death in pancreatic sections, the technique of terminal deoxynucleotidyl transferase dUTP nick end labeling (TUNEL) was performed using biotinylated 16-dUTP (Roche) and Texas Red Neutravidin (Invitrogen). Digital images of each islet at 40× magnification were acquired using an Axio-Observer D1 microscope (Zeiss) inverted fluorescent microscope equipped with a high-resolution color camera. TUNEL-positive/insulin-positive nuclei were counted manually by an observer blinded to sample identity, and data were re-coded as the average number of TUNEL-positive nuclei per islet. β cell mass was calculated as described previously (73), but with some modifications. Briefly, pancreata from 3 mice per treatment group were rapidly dissected and weighed, fixed in 4% paraformaldehyde, paraffin-embedded, and longitudinally sectioned. Three sections/pancreas (approx. 75 μm apart) were subsequently immunostained for insulin and counterstained with hematoxylin as described (74), and digital images of each section at 10× magnification were acquired on an Axio-Observer Z1 microscope (Zeiss) fitted with an AxioCam high resolution color camera. […]

[6] = system: STZ-treated NOD/Scid-(IL-2Rγ-null) mice; assay: Multiple low-dose STZ model in immune-deficient NOD/Scid-(IL-2Rγ-null) mice; format: in vivo, mouse; details: multiple low-dose STZ (data not shown for si-eIF5A)
Method: as §1
As noted, low-dose STZ-induced islet dysfunction involves at least two mechanisms: an inflammatory mechanism that is dependent upon cytokine release from immune cells and a direct toxic mechanism on the islet itself. […] Next, islets from 3 C57BL/6J mice per group 24 h after the initial STZ treatment were isolated and pooled and their iNOS content determined by immunoblot. […]
Studies in vivo: Daily STZ injections to groups of 10 week-old C57BL/6J and NOD/Scid-(IL-2Rγ-null) mice proceeded as described previously (30) at a dose of 55 mg STZ per kg mouse weight for 5 days. […] Serum was analyzed using a Luminex system (Millipore) and a mouse cytokine/chemokines Panel 1 mutliplex kit (Millipore).

NC(Cn1ccc(=O)c(O)c1)C(=O)O (stereo not shown) [mimosine]
iNOS protein after cytokines [1]: dose-dependent attenuation

N=C(N)NN [aminoguanidine]
inhibition of iNOS catalytic activity (literature) [2]: effective inhibitor of iNOS catalytic activity

CCC(=C/[C@H](C)C/C=C/C(C)=C/[C@@H](C)C(=O)[C@@H](C)[C@H](O)[C@@H](C)C/C(C)=C/C(=O)O)/C=C/[C@@H]1OC(=O)C=C[C@@H]1C [leptomycin B]
Nos2 export blocked ([3]; cytokine-treated INS-1 cells): about 50% | distribution of mRNAs between nuclear and cytoplasmic fractions ([3]; cytokine-treated, GC7 100 μM overnight or leptomycin B 20 ng/ml 3 h): relative retention of Nos2, Actb, and Nfkb1 (but not Gapdh) in the nuclear fraction | cytokine-induced translocation of eIF5A [4]: failed to induce the nuclear to cytoplasmic translocation of eIF5A

5′-AAAGUCGACCUUCAGUAAGGA-3′ (stabilizing modifications, further chemistry not given here) [si-Control, control siRNA, stabilized]
average fasting blood glucose ([5]; siRNA 1.6 mg/kg i.p. daily for 3 days, then multiple low-dose STZ, day 7): 159 mg/dL | reduction of β cell mass compared to non-STZ-treated controls ([5]; siRNA i.p., multiple low-dose STZ, morphometry of insulin-stained sections): 2.8 fold

IL-1Ra: interleukin-1 receptor antagonist, the IL-1Ra anakinra
glucose intolerance in IPGTT with IL-1Ra ([5]; concurrent IL-1Ra treatment, multiple low-dose STZ): attenuated glucose intolerance only in immune-competent mice | serum IL-6 levels ([5]; concurrent treatment with STZ): dramatic drop in serum IL-6 levels | protection against glucose intolerance [6]: did not protect against glucose intolerance
